Data from paper PMC6196658, “Activity of Thioallyl Compounds From Garlic Against Giardia duodenalis Trophozoites and in Experimental Giardiasis” (Frontiers in Cellular and Infection Microbiology, 2018).
In brackets after ≈: the same amount, converted by molar mass. Several values for one entry are separate records, joined by “and”; a condition that tells them apart may be missing. Equal values may be shown once. Read-outs that look alike come from different tables or passages of the source.

Key:
[1] = tested on: G. duodenalis trophozoites; test: Annexin V-PI flow cytometry (apoptosis/necrosis); type: cell-based, Giardia duodenalis; settings: 0.48 μM, 24 h
Experimental: (§1) The identification and quantitative determinations of trophozoites were carried out as follows: (a) apoptosis or necrosis were determined using anti-annexin V-fluorescein isothiocyanate (FITC) antibodies or PI as respective markers, (b) oxidative stress was determined by formation of reactive oxygen species (ROS) with the fluorescent ROS-complexing agent 5-(and 6)-carboxy 2′7′-dichlorodihydrofluorescein diacetate (H2DCFDA), and (c) determination of trophozoites cell cycle stages (G1, S, G2, and G2/M) after exposure to ALC or to a control drug (albendazole, ABZ) was carried out as previously described (Martínez-Espinosa et al., [2015]). In all these assays 20,000 cells per sample were recorded.

[2] = tested on: G. duodenalis trophozoites; test: ROS formation, H2DCFDA flow cytometry; type: cell-based, Giardia duodenalis
Experimental: as §1

[3] = tested on: G. duodenalis trophozoites; test: Cell cycle stages, PI flow cytometry; type: cell-based, Giardia duodenalis; settings: 1.35 μM, 24 h
Experimental: as §1

[4] = tested on: G. duodenalis trophozoites; test: In vitro susceptibility, subculture in liquid medium (SCLM); type: cell-based, Giardia duodenalis (WB strain); settings: for MLC (mM) ±SD / IC50: SCLM, 24 h exposure; for IC50: read-out: IC50 (mM) ±SD
[5] = tested on: cysteine protease activities in trophozoite lysates; test: Proteolytic activity assay (gelatin zymogram); type: biochemical, Giardia duodenalis
Experimental: Trophozoite lysates were prepared as mentioned above except that cell lysis was carried out by sonication in 1.5 mL microcentrifuge tubes under ice bath using eight 15-s pulses at 80% amplitude with resting periods of 30 s (Ultrasonic Processor mod. CV19). Protein concentration was adjusted to 2 mg/mL and aliquoted in 25 μL fractions that were incubated for 30 min room temperature with 2–5 μL stock solutions of representative TACs (ALC, DADS, and AM). The reaction mixtures were diluted in Laemmli's sample buffer, loaded in wells of 10% acrylamide-02% gelatin slab gels and these were electrophoretically analyzed using 80 V/4°C. After this, gels were incubated in a solution of triton X-100 2.5% (v/v) in water for 1 h and washed 3 times with distilled water. Bands with proteolytic activity were detected as follows: gels were incubated in acetate buffer pH 5.5 with 1 mM DTT for 16 h at 37°C under constant stirring, washed 3 times with distilled water and stained with Coomassie blue (BioRad) for 2 h at 37°C under constant stirring. Finally, gels were washed with distilled water and incubated with a solution of 5% acetic acid/40% methanol (v/v). Gel images were documented with a UVP High Performance Ultraviolet Transilluminator and software Launch DocItLS.

giardipain-1 = target: T1, giardipain-1 (Giardia intestinalis, UniProt P92132); test: Inhibition of cytolytic effect of giardipain-1 on IEC6 cell monolayers; type: cell-based, Giardia duodenalis; settings: 100 min
T1 construct: the 25 kDa band that contains the processed form of the cathepsin B-like protease named as giardipain-1; endogenous in cells
Experimental: (§2) Additional assays were carried out using the MLCs of TACs (without giardipain-1) previously obtained in trophozoite cultures to monitor their toxicity. These solutions were added to monolayers of the intestinal cell line IEC6 grown in 1 cm^2-microwells and incubated for 100 min at 37°C. After incubation, supernatants were discarded and monolayers were fixed with 2% paraformaldehyde in PBS. The effects of TACs and E64 on the cytolytic effect of giardipain-1 were evaluated by light microscopy using Nomarski optics (Axioskop 40, Zeiss).

[6] = tested on: thiol groups exposed in G. duodenalis trophozoite proteins; test: Thiol-modifying activity (inhibition of thiol-DTNB complexes); type: biochemical, Giardia duodenalis; settings: 100 μg soluble trophozoite protein, 10 min 37°C, DTNB 412 nm
Experimental: The technique reported by Lawson and Wang ([1993]) was followed. In these assays trophozoites were collected from 60 mL flasks, washed 3 times with PBS and resuspended in 500 μL PBS containing a 1:12.5 dilution of a commercial mixture of protease inhibitors (Complete^TM, Roche Diagnostics GmbH, Indianapolis, IN, USA) and lysed by sonication at 12 microns/60% amplitude (Ultrasonic apparatus Sonic UVX1130PB). Soluble proteins were recovered by centrifugation at 15,400 × g for 30 min at 4°C and protein concentration was determined by the Bradford technique. These samples were adjusted to a concentration of 1 mg/mL. Reactions were carried out in 1.5 mL microcentrifuge tubes with a mixture of 100 μg protein (100 μL) and NaH2PO4 45 mM pH 7.0 mM (800 μL) to which increasing volumes of TACs stocks or a positive control with the thiol derivatizing agent MMTS prepared at 50 mM in the same buffer, were added and total volume was adjusted to 1 mL. After incubation for 10 min at 37°C, 100 μL of 1.5 mM dithionitrobenzoic acid (DTNB, Ellman's reagent) were added to each tube and following incubation for 10 min at room temperature the absorbances (yellow solutions) were recorded at 412 nm (Smart Spec 3000^TM, Bio-Rad, Hercules, CA, USA). A calibration curve was obtained using increasing volumes (0–100 μL) of 15.5 mM cysteine instead protein extracts and the maximal blocking concentration (MBC) corresponding to a complete absence of thiol-DTNB complexes produced by TACs were calculated using the least-square method (Microsoft Excel^TM).

IEC6 cell monolayers = test: Toxicity of TACs on IEC6 cell monolayers; type: cell-based; settings: 275 mM, without giardipain-1, 100 min
Experimental: as §2

[7] = tested on: G. duodenalis trophozoites; parameters: method as in Argüello-García et al., 2004; settings: positive control drug; ref Argüello-García et al., 2004; cited from earlier work
[8] = tested on: G. duodenalis trophozoites; test: Efficacy in experimental giardiasis; settings: read day 13
Experimental: Eighty male Mongolian gerbils (M. unguiculatus) 6–10 weeks old, weighted 45–60 g and sentinel-checked gerbils free of intestinal parasites were kept in individual cages and distributed in 12 groups of 6 animals per treatment and experimental infections were performed as described elsewhere (Argüello-García and Ortega-Pierres, [1997]). In brief, animals were inoculated intragastrically with 1 × 10^6 G. duodenalis trophozoites in 500 μl sterile PBS per os using gavage under ether anesthesia. Control animals received 500 μl sterile PBS each. […] As additional control, one group of animals received MTZ (38.4 mg/kg at single or double dose). […] Treatment efficacy was evaluated by determining the presence or absence of trophozoites in intestinal contents of control and treated gerbils at day 13 post-infection. For this, gerbils were euthanized by an intraperitoneal injection of pentobarbital at a dose of 150 mg/kg to minimize stress and to reduce suffering, then a 10 cm-long section of intestine (from stomach ending, equivalent to nearly the entire small intestine) was excised after laparotomy, and it was longitudinally opened and rinsed in 20 mL PBS at 4°C for 20 min under shaking (720 rpm, Heidolph^TM rotatory shaker) to determine trophozoites number after parasite detachment from microvilli. Supernatant was collected and centrifuged at 750 × g for 10 min at 4°C, cell pellet was resuspended in 1 mL PBS and trophozoites were counted using a haemocytometer. Gerbils were scored as cured if no trophozoites were recovered from infected animals.

T1 sequence (P92132 75-300): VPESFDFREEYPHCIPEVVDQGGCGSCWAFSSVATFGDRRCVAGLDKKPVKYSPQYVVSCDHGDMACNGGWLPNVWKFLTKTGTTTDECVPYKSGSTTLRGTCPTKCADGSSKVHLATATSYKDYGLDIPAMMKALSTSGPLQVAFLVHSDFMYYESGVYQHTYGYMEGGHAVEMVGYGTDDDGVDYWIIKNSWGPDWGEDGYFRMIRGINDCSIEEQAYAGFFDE

For `CCCSc1ccc2nc(NC(=O)OC)[nH]c2c1` [ABZ, albendazole], which “R1 cells positive for necrosis (PI+)” value [1] is on record?
The value was 5%.

And the “cells in apoptosis (early plus late)” value [1]?
Its value is 41.0%.

And the “cells positive for ROS (total)” value ([2]; ABZ control, 0.48 μM per Figure 9, 24 h)?
Its value is 33.85%.

And the “cells at G2 phase” value [3]?
Its value is 69.9%.

And the “cells at S phase” value [3]?
Its value is 22.1%.

With `C=CCS` [AM, allyl mercaptan] as the compound, how does the “MLC (mM) ±SD” value [4] read?
The value was 3.06 mM (≈ 227 µg/mL).

What about the “MLC (mM) ±SD” value ([4]; listed as Allyl Mercaptan (AM)) of the same compound?
The value was 3.06 ± 0.7 mM (≈ 227 µg/mL).

What about the IC50 [4] of the same compound?
The IC50 was 0.83 ± 0.2 mM.

And the “effect on proteolytic bands in zymogram” value ([5]; bands of 75, 60 and 25 kDa, concentration not given)?
The value was “significant increase of activity”.

And the “effect on giardipain-1 cytopathic damage in IEC6 monolayers” value (shortened to “effect on giardipain-1 cytopathic damage”) (giardipain-1; 514 mM pre-incubated 30 min with giardipain-1 16 μg/mL)?
The value was “noticeably blocked these effects”.

With `C=CCSC` [AMS, allyl methyl sulfide] as the compound, how does the “MLC (mM) ±SD” value [4] read?
The value was 74.28 mM (≈ 6550 µg/mL).

What about the “MLC (mM) ±SD” value ([4]; listed as Allyl Methyl Sulfide (AMS)) of the same compound?
The value was 74.28 ± 12.3 mM (≈ 6550 µg/mL).

And the IC50 [4]?
The IC50 was 40.3 ± 3.5 mM.

What about the “MBC (maximal blocking concentration) ± SD” value [6] of the same compound?
Its value is 845.9 mmol/mg protein and 845.96 ± 78.1 mmol/mg protein.

With `C=CCSSCC=C` [DADS, diallyl disulphide] as the compound, how does the “MLC (mM) ±SD” value [4] read?
Its value is 2.66 mM (≈ 389 µg/mL).

What about the “MLC (mM) ±SD” value ([4]; listed as Diallyl Disulfide (DADS)) of the same compound?
The value was 2.66 ± 0.8 mM (≈ 389 µg/mL).

What about the IC50 [4] of the same compound?
Its IC50 is 1.4 ± 0.6 mM.

And the “MBC (maximal blocking concentration) ± SD” value [6]?
Its value is > 200 mmol/mg protein and 224.58 ± 18.8 mmol/mg protein.

And the “effect on proteolytic bands in zymogram” value ([5]; 275 mM)?
Its value is “could diminish similar activities except for the one at 60 kDa”.

What about the “effect on giardipain-1 cytopathic damage” value (giardipain-1; 275 mM pre-incubated 30 min with giardipain-1 16 μg/mL) of the same compound?
Its value is “reduced the frequency of cells displaying apoptotic damage”.

What about the “toxicity to IEC6 cell monolayers” value (IEC6 cell monolayers) of the same compound?
Its value is “affected some cells”.

With `C=CCSCC=C` [DAS, diallyl sulfide] as the compound, how does the IC50 ([4]; Giardia duodenalis) read?
The IC50 was 14.5 ± 2.3 mM.

And the “MLC (mM) ±SD” value [4]?
Its value is 23.71 mM (≈ 2710 µg/mL).

What about the “MLC (mM) ±SD” value ([4]; listed as Diallyl Sulfide (DAS)) of the same compound?
Its value is 23.71 ± 6.0 mM (≈ 2710 µg/mL).

And the “MBC (maximal blocking concentration) ± SD” value [6]?
The value was 351.3 mmol/mg protein and 351.34 ± 78.9 mmol/mg protein.

For `C=CCSSSCC=C` [DATS, diallyl trisulfide], which “MLC (mM) ±SD” value [4] is on record?
Its value is 1.35 ± 0.18 mM (≈ 241 µg/mL).

What about the “MBC (maximal blocking concentration) ± SD” value [6] of the same compound?
The value was > 200 mmol/mg protein and 201.61 ± 33.4 mmol/mg protein.

For `CC(C)C[C@H](NC(=O)[C@H]1O[C@@H]1C(=O)O)C(=O)NCCCCN=C(N)N` [E64, reference compound], which “effect on proteolytic bands in zymogram” value ([5]; 20 μM) is on record?
The value was “selective inhibition on the 25 kDa band”.

And the “effect on giardipain-1 cytopathic damage” value (giardipain-1; 20 μM pre-incubated 30 min with giardipain-1 16 μg/mL)?
Its value is “efficiently inhibited the giardipain-1 induced damage”.

Which “MBC (maximal blocking concentration) ± SD” value [6] does the source give for `CSS(C)(=O)=O` [MMTS, methyl methanethiosulfonate, reference compound] here?
Its value is 55.45 ± 3.2 mmol/mg protein.

What does the source list for `Cc1ncc([N+](=O)[O-])n1CCO` [MTZ, metronidazole, reference compound]?
inhibition at 3 µM ([4]; Giardia duodenalis, 3.0 μM, 24 h, positive control, read-out: inhibition of trophozoite growth): 45 to 55%; inhibition at 5.9 µM ([4]; Giardia duodenalis, 5.9 μM, 24 h, positive control, read-out: inhibition of trophozoite growth): > 95%; IC50 [7]: 0.003 mM; MLC [7]: 0.0059 mM (≈ 1.01 µg/mL); cure rate (gerbils without trophozoites) ([8]; 36 mg/kg at twice dose): 5 out of 6; cure rate (gerbils without trophozoites) ([8]; 36 mg/kg single dose): 3 out of 6

Which “cells positive for ROS (total)” value ([2]; TBHP control, 400 μM per Figure 9, 24 h) does the source give for `CC(C)(C)OO` [TBHP, tert-butyl hydroperoxide] here?
The value was 17.1%.

For `O=C([O-])c1cc[c]([Hg][OH])cc1.[Na+]` [pHMB, sodium p-hydroxymercuribenzoate, reference compound], which “effect on proteolytic bands in zymogram” value ([5]; 10 mM) is on record?
The value was “full inhibition of all proteolytic bands”.

Which results are given for S-allyl-L-cysteine [SAC]?
MLC (mM) ±SD [4]: 69.1 mM; MLC (mM) ±SD ([4]; listed as S-Allyl Cysteine (SAC)): 69.10 ± 13.1 mM; IC50 [4]: 40.8 ± 6.3 mM; MBC (maximal blocking concentration) ± SD [6]: 1260.9 mmol/mg protein and 1260.99 ± 125.6 mmol/mg protein
